# According to patent US20230047208A1, “RNA Splicing Modulation” (The General Hospital Corporation, priority 2020, published 2023):
# How the values were obtained:
# SETD5 minigene, Exon X = test: SETD5 minigene splicing assay, RT-PCR; assay type: cell-based; conditions: mutated SETD5 minigene
# Excerpt: FIGS. 3E-3G Upper row: The length of the exon triplets cloned into minigenes constructs are shown. The flanking sequences of the 5′ splice sites of Exon X are shown in LOGO plots. The height of each nucleotide was estimated using in silico saturated mutagenesis, with the corresponding closely matched CNN Motifs indicated below the plots. […] Middle row: Splicing changes for Exon X in both wildtype and mutated exon triplets, predicted by the CNN model (left) and measured by RT-PCR of the minigene (right). The RT-PCR experiments were performed in duplicate and independently repeated three times for each minigene to make the bar plots (two-tailed, unpaired Student's t test). Bottom row: Example of splicing changes induced by treatment with Compound (I) in the minigene splicing assays. The percentage for Exon X inclusion is indicated beneath each lane, from treated and untreated conditions in both wildtype and mutated minigenes. […] The statistical significance, as shown in FIGS. 3E-3G, was determined via two-tailed, unpaired Student's test: *p<0.05; **p<0.01; ***p<0.001. […]
# Wild-type and mutant double-stranded DNA (dsDNA) fragments, selected based on low nucleotide length and exon-skipping probability, were ordered through GENEWIZ (FragmentGENE). […] Concentrations were determined using a nanodrop spectrometer.
# MAPT exon 10 = test: MAPT minigene exon 10 splicing in transfected cell lines; assay type: cell-based; conditions: 60 μM, 24 hours, MAPT minigenes, all three mutations tested
# Excerpt: FIGS. 4C-4F Upper row: The sequences at the 5′ splice site of Exon X in patient cells and minigene constructs are shown (FIGS. 4C-4F). The sequences around the 5′ splice site of Exon X are shown in LOGO plots, with the closely matched CNN motifs indicated beneath the plots. […] Middle row: RT-PCR experiments validated treatment responses in patient cell lines carrying specific splice site mutations. The upper bands indicate the isoform in which the middle Exon X is included while the lower bands indicate the isoform in which the middle Exon X is skipped. Each set of gels is one of the triplicates used to generate the bar plots beneath. […] The statistical significance, as shown in FIGS. 4C-4F, was determined via two-tailed, unpaired Student's test: *p<0.05; **p<0.01; ***p<0.001.
# In another example from Table 18, several MAPT minigenes encompassing exons 9 to 11 and flanking exon 10 intronic sequences, with the three mutations listed in Table 17: c.1866+3 G>A, c.1865 G>A or c.1788 T>G were prepared. These mutations were predicted by SpliceA1 to promote inclusion of MAPT exon 10. […] An increase in MAPT exon 10 inclusion is responsible for familial frontotemporal dementia and Parkinsonism linked to chromosome 17 (FTDP-17, MIM #600274). […]
# ELP1 = test: In vivo ELP1 splicing correction in humanized transgenic mouse model
structure (smiles),measurement,setting,value
"Clc1nc(NCc2ccncc2)c2cc[nH]c2n1 [Compound (I), 2-chloro-N-(pyridin-4-ylmethyl)-7H-pyrrolo[2,3-d]pyrimidin-4-amine]",Exon X splicing response confirmed by RT-PCR,"SETD5 minigene, Exon X",exclusion
same,exon 10 splicing,MAPT exon 10,significantly promoted exon 10 exclusion
same,ELP1 protein in tissues,ELP1,"increase of ELP1 protein in all tissues, including the brain"
